Patent publication US20240207258A1, “HETEROCYCLIC PDK1 INHIBITORS FOR USE TO TREAT CANCER” (Viracta Therapeutics, Inc., priority 2015, published 2024)

Key:
[1] = system: Molm-13; assay: MTS cell proliferation assay, Molm-13; format: cell-based; conditions: Homo sapiens; Molm-13, 72 hr
Protocol: (§1) Cell proliferation was measured using the CellTiter 96 Aqueous Non-Radioactive Cell Proliferation Assay (Promega). The CellTiter 96® AQueous Assay is composed of solutions of a tetrazolium compound [3-(4,5-dimethylthiazol-2-yl)-5-(3-carboxymethoxyphenyl)-2-(4-sulfophenyl)-2H-tetrazolium, inner salt; MTS] and an electron coupling reagent (phenazine methosulfate) PMS. MTS is bioreduced by cells into a formazan product that is soluble in tissue culture medium. The absorbance of the formazan product at 490 nm can be measured directly from assay plates without additional processing. The quantity of formazan product as measured by the amount of 490 nm absorbance is directly proportional to the number of living cells in culture. Cells were seeded into 96-well or 384-well clear plates in a volume of 200 μL (96-well) or 50 μL (384-well) at optimized densities ranging from 1,000 to 40,000 cells per well for 96-well plates or 1,200 to 25,000 cells per well for 384-well plates depending on cell-line. After 4-6 hr recovery, serially diluted compounds in DMSO were added to the cells using (0.1% v/v final DMSO concentration). Cells were then grown at 37° C. in a humidified incubator with 5% CO2 for 72 hr. A 20:1 [3-(4,5-dimethylthiazol-2-yl)-5-(3-carboxymethoxyphenyl)-2-(4-sulfophenyl)-2H-tetrazolium](MTS):phenazine methosulfate (PMS) solution in DPBS was made immediately before use, added to each well, and cells were incubated for 1.5 hr at 37° C. The absorbance at 490 nm was then measured using a platereader. Absorbance values were normalized as percent of control (cells incubated in the presence of 0.1% v/v DMSO). Sigmoidal dose-response curves were plotted using log(inhibitor) vs. response—Variable slope (four parameters) model with a top value constrained to 100% (GraphPad Prism version 6.00 for Windows, GraphPad Software, La Jolla California USA). […] Curves for compounds that reached a plateau were matched exactly to the measurement points. […] To determine potential of compounds of the invention to affect viability of hematological cancers, cell lines representing various tumor types were selected and tested. Human cell lines tested were: MOLM-13 (acute myeloid leukemia (AML)), MV4-11 (AML), U-2932 (ABC-diffuse large B cell lymphoma), U-937 (histiocytic lymphoma), U-266 (multiple myeloma), RPMI-8226 (multiple myeloma), CMK (megakaryoblastic cell line), SU-DHL-4 (GCB-diffuse large B cell lymphoma), KG1 (AML), Mec-1 (chronic B-cell leukemia), MOLM-16 (AML), Jeko (B-cell lymphoma), WSU-DLCL2 (B-cell lymphoma), JJN3 (plasma cell leukemia), SU-DHL-6 (GCB-diffuse large B cell lymphoma), and Z-138 (mantle cell lymphoma). In addition, two murine cell lines were tested: A20 […].

[2] = system: MV4-11; assay: MTS cell proliferation assay, MV4-11; format: cell-based, human; conditions: Homo sapiens; MV4-11, 72 hr; read-out: MTS proliferation assay
Protocol: Cell proliferation was measured using the CellTiter 96 Aqueous Non-Radioactive Cell Proliferation Assay (Promega). […] MTS is bioreduced by cells into a formazan product that is soluble in tissue culture medium. The absorbance of the formazan product at 490 nm can be measured directly from assay plates without additional processing. The quantity of formazan product as measured by the amount of 490 nm absorbance is directly proportional to the number of living cells in culture. Cells were seeded into 96-well or 384-well clear plates in a volume of 200 μL (96-well) or 50 μL (384-well) at optimized densities ranging from 1,000 to 40,000 cells per well for 96-well plates or 1,200 to 25,000 cells per well for 384-well plates depending on cell-line. After 4-6 hr recovery, serially diluted compounds in DMSO were added to the cells using (0.1% v/v final DMSO concentration). Cells were then grown at 37° C. in a humidified incubator with 5% CO2 for 72 hr. A 20:1 [3-(4,5-dimethylthiazol-2-yl)-5-(3-carboxymethoxyphenyl)-2-(4-sulfophenyl)-2H-tetrazolium](MTS):phenazine methosulfate (PMS) solution in DPBS was made immediately before use, added to each well, and cells were incubated for 1.5 hr at 37° C. The absorbance at 490 nm was then measured using a platereader. Absorbance values were normalized as percent of control (cells incubated in the presence of 0.1% v/v DMSO). Sigmoidal dose-response curves were plotted using log(inhibitor) vs. response—Variable slope (four parameters) model with a top value constrained to 100% (GraphPad Prism version 6.00 for Windows, GraphPad Software, La Jolla California USA). […] To determine potential of compounds of the invention to affect viability of hematological cancers, cell lines representing various tumor types were selected and tested. […] In addition, two murine cell lines were tested: A20 […].

[3] = system: U-2932; assay: MTS cell proliferation assay, U-2932; format: cell-based; conditions: Homo sapiens, U2932; U-2932, 72 hr
Protocol: as §1

[4] = system: U-937; assay: MTS cell proliferation assay, U-937; format: cell-based; conditions: Homo sapiens; U-937, 72 hr
Protocol: (§2) Cell proliferation was measured using the CellTiter 96 Aqueous Non-Radioactive Cell Proliferation Assay (Promega). The CellTiter 96® AQueous Assay is composed of solutions of a tetrazolium compound [3-(4,5-dimethylthiazol-2-yl)-5-(3-carboxymethoxyphenyl)-2-(4-sulfophenyl)-2H-tetrazolium, inner salt; MTS] and an electron coupling reagent (phenazine methosulfate) PMS. MTS is bioreduced by cells into a formazan product that is soluble in tissue culture medium. The absorbance of the formazan product at 490 nm can be measured directly from assay plates without additional processing. The quantity of formazan product as measured by the amount of 490 nm absorbance is directly proportional to the number of living cells in culture. Cells were seeded into 96-well or 384-well clear plates in a volume of 200 μL (96-well) or 50 μL (384-well) at optimized densities ranging from 1,000 to 40,000 cells per well for 96-well plates or 1,200 to 25,000 cells per well for 384-well plates depending on cell-line. After 4-6 hr recovery, serially diluted compounds in DMSO were added to the cells using (0.1% v/v final DMSO concentration). Cells were then grown at 37° C. in a humidified incubator with 5% CO2 for 72 hr. A 20:1 [3-(4,5-dimethylthiazol-2-yl)-5-(3-carboxymethoxyphenyl)-2-(4-sulfophenyl)-2H-tetrazolium](MTS):phenazine methosulfate (PMS) solution in DPBS was made immediately before use, added to each well, and cells were incubated for 1.5 hr at 37° C. The absorbance at 490 nm was then measured using a platereader. Absorbance values were normalized as percent of control (cells incubated in the presence of 0.1% v/v DMSO). Sigmoidal dose-response curves were plotted using log(inhibitor) vs. response—Variable slope (four parameters) model with a top value constrained to 100% (GraphPad Prism version 6.00 for Windows, GraphPad Software, La Jolla California USA). […] Curves for compounds that reached a plateau were matched exactly to the measurement points. […]

[5] = system: U-266; assay: MTS cell proliferation assay, U-266; format: cell-based; conditions: Homo sapiens; U-266, 72 hr
Protocol: as §2

[6] = system: RPMI-8226; assay: MTS cell proliferation assay, RPMI-8226; format: cell-based; conditions: Homo sapiens; RPMI-8226, 72 hr
Protocol: as §1

[7] = system: CMK; assay: MTS cell proliferation assay, CMK; format: cell-based; conditions: Homo sapiens, 72 hr
Protocol: as §2

[8] = system: SU-DHL-4; assay: MTS cell proliferation assay, SU-DHL-4; format: cell-based; conditions: Homo sapiens; SU-DHL-4, 72 hr
Protocol: as §2

[9] = system: KG1; assay: MTS cell proliferation assay, KG1; format: cell-based; conditions: Homo sapiens, KG-1; KG1, 72 hr
Protocol: as §2

[10] = system: Mec-1; assay: MTS cell proliferation assay, Mec-1; format: cell-based; conditions: Homo sapiens, MEC1; Mec-1, 72 hr
Protocol: as §2

[11] = system: MOLM-16; assay: MTS cell proliferation assay, MOLM-16; format: cell-based; conditions: Homo sapiens, MOLM16; MOLM-16, 72 hr
Protocol: as §2

[12] = system: Jeko; assay: MTS cell proliferation assay, Jeko; format: cell-based; conditions: Homo sapiens, 72 hr
Protocol: as §1

[13] = system: WSU-DLCL2; assay: MTS cell proliferation assay, WSU-DLCL2; format: cell-based; conditions: Homo sapiens, WSUDLCL2; WSU-DLCL2, 72 hr
Protocol: as §2

[14] = system: JJN3; assay: MTS cell proliferation assay, JJN3; format: cell-based; conditions: Homo sapiens, JJN-3; JJN3, 72 hr
Protocol: as §2

[15] = system: SU-DHL-6; assay: MTS cell proliferation assay, SU-DHL-6; format: cell-based; conditions: Homo sapiens; SU-DHL-6, 72 hr
Protocol: as §2

[16] = system: Z-138; assay: MTS cell proliferation assay, Z-138; format: cell-based; conditions: Homo sapiens; Z-138, 72 hr
Protocol: as §2

[17] = system: hematologic tumor cell lines; assay: MTS cell proliferation assay, panel of hematologic cancer cell lines; format: cell-based
Protocol: as §1

[18] = biological target: T1, Full-length phosphorylated PDK1 (Homo sapiens, UniProt O15530); assay: Fluorescence polarization PIF-tide binding assay; conditions: PDK1 saturating amounts of compound, FIG. 13C
T1 sequence (O15530 1-556): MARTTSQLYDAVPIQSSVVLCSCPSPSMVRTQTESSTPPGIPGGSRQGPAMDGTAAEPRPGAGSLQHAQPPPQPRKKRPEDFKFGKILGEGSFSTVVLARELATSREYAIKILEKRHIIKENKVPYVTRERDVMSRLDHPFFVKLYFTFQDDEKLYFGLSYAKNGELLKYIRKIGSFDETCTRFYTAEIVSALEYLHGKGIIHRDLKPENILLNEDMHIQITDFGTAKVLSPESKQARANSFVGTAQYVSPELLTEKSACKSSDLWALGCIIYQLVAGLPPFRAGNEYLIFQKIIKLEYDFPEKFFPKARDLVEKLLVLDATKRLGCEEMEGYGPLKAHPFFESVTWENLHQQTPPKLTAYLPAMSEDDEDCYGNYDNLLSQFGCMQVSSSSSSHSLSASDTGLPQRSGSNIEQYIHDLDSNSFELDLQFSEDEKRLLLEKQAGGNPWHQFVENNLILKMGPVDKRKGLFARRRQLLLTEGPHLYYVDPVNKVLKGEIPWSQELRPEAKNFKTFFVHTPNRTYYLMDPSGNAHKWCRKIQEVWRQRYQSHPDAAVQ

[19] = biological target: T1, Full-length phosphorylated PDK1; assay: FRET-based PIF-tide binding assay; conditions: 10 nM compound where stated, FIG. 13D

Q: What does the source list for C[C@H](NC(=O)c1nc(C#N)cnc1NCc1ccc(-c2cnc3[nH]nc(N)c3c2)cc1)c1ccc(F)c(F)c1 [Compound 3, 3-[4-(3-Amino-1H-pyrazolo[3,4-b]pyridin-5-yl)-benzylamino]-6-cyano-pyrazine-2-carboxylic acid [1-(3,4-difluoro-phenyl)-ethyl]-amide]?
A: EC50 [1]: 5 nM; EC50 [2]: 12 nM; EC50 [3]: 115 nM; EC50 [4]: 111 nM; EC50 [5]: 145 nM; EC50 [6]: 201 nM; EC50 [7]: 278 nM; EC50 [8]: 411 nM; EC50 [9]: 193 nM; EC50 [10]: 403 nM; EC50 [11]: 291 nM; EC50 [12]: 249 nM; EC50 [13]: 474 nM; EC50 [14]: 853 nM; EC50 [15]: 458 nM; EC50 [16]: 754 nM; EC50 ([17]; range against the various cell lines of Table 1, read-out: inhibition of cell proliferation EC50): 3 to 853 nM; PIF-tide binding to PDK1 (fluorescence polarization, words) [18]: significant inhibition of PIF-tide binding

Q: With CN[C@@H]1C[C@H]2O[C@@](C)([C@@H]1OC)n1c3ccccc3c3c4c(c5c6ccccc6n2c5c31)C(=O)NC4 [staurosporine, reference compound] as the molecule, how does the “FRET between PDK1 and PIF-tide” value [19] read?
A: does not inhibit FRET

Q: For COc1cccc2c1C(=O)c1c(O)c3c(c(O)c1C2=O)C[C@@](O)(C(=O)CO)C[C@@H]3O[C@H]1C[C@H](N)[C@H](O)[C@H](C)O1 [doxorubicin, reference compound], which “plateau of growth inhibition curve at higher concentrations” value ([17]; 72 hrs, percent of control) is on record?
A: < 20%
